Measurements taken from PubChem BioAssay AID1963986 (Molecular Pharmacology Branch, DTP, NCI, 2024).
Several values for one entry are separate records, joined by “and”; a condition that tells them apart may be missing. Equal values may be shown once.

Test system: 171881-019-R-J1-PDC tumor spheroid viability
Assay: Anticancer human tumor 171881-019-R-J1-PDC patient-derived invasive breast carcinoma cell line growth inhibition [PI3K]
Settings: spheroids with HUVEC and MSC; for viability, T/C: stronger effect = lower value
How it was run: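 Complex 3D spheroids (cancer cells + endothelial HUVEC + mesenchymal stem cells); drug pairs of targeted agent x inavolisib/alpelisib/duvelisib/copanlisib; half-log series from ~Cmax, max 10 microM if Cmax unknown; endpoint viability.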
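Also: spheroids exposed to compound for 7 days before viability read.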
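For viability, T/C in this document: 100% = DMSO vehicle-treated spheroids.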

Structure (SMILES): Cn1ncnc1[C@H]1c2n[nH]c(=O)c3cc(F)cc(c23)N[C@@H]1c1ccc(F)cc1 + CC(Nc1ncnc2nc[nH]c12)c1cc2cccc(Cl)c2c(=O)n1-c1ccccc1
- IC50 (curve of first compound, second compound 0.0316 µM): > 100 nM
- IC50 (curve of first compound, second compound 0.1 µM): > 100 nM
- IC50 (curve of first compound, second compound 0.316 µM): > 100 nM
- IC50 (curve of first compound, second compound 1 µM): > 100 nM
- IC50 (curve of first compound, second compound 3.16 µM): > 100 nM
- IC50 (curve of first compound, second compound 10 µM): > 100 nM
- viability, T/C (second compound 0.0316 µM, first compound 0.000316 µM): 88.4%
- viability, T/C (second compound 0.0316 µM, first compound 0.001 µM): 96.4%
- viability, T/C (second compound 0.0316 µM, first compound 0.00316 µM): 93.4%
- viability, T/C (second compound 0.0316 µM, first compound 0.01 µM): 104%
- viability, T/C (second compound 0.0316 µM, first compound 0.0316 µM): 97.3%
- viability, T/C (second compound 0.0316 µM, first compound 0.1 µM): 92.1%
- viability, T/C (second compound 0.1 µM, first compound 0.000316 µM): 102%
- viability, T/C (second compound 0.1 µM, first compound 0.001 µM): 98.6%
- viability, T/C (second compound 0.1 µM, first compound 0.00316 µM): 88.8%
- viability, T/C (second compound 0.1 µM, first compound 0.01 µM): 109%
- viability, T/C (second compound 0.1 µM, first compound 0.0316 µM): 90.6%
- viability, T/C (second compound 0.1 µM, first compound 0.1 µM): 102%
- viability, T/C (second compound 0.316 µM, first compound 0.000316 µM): 93.2%
- viability, T/C (second compound 0.316 µM, first compound 0.001 µM): 99.5%
- viability, T/C (second compound 0.316 µM, first compound 0.00316 µM): 92.1%
- viability, T/C (second compound 0.316 µM, first compound 0.01 µM): 106%
- viability, T/C (second compound 0.316 µM, first compound 0.0316 µM): 90.1%
- viability, T/C (second compound 0.316 µM, first compound 0.1 µM): 95.8%
- viability, T/C (second compound 1 µM, first compound 0.000316 µM): 82%
- viability, T/C (second compound 1 µM, first compound 0.001 µM): 100%
- viability, T/C (second compound 1 µM, first compound 0.00316 µM): 105%
- viability, T/C (second compound 1 µM, first compound 0.01 µM): 103%
- viability, T/C (second compound 1 µM, first compound 0.0316 µM): 97.1%
- viability, T/C (second compound 1 µM, first compound 0.1 µM): 98.2%
- viability, T/C (second compound 3.16 µM, first compound 0.000316 µM): 83.5%
- viability, T/C (second compound 3.16 µM, first compound 0.001 µM): 91.3%
- viability, T/C (second compound 3.16 µM, first compound 0.00316 µM): 85.1%
- viability, T/C (second compound 3.16 µM, first compound 0.01 µM): 93.2%
- viability, T/C (second compound 3.16 µM, first compound 0.0316 µM): 92.5%
- viability, T/C (second compound 3.16 µM, first compound 0.1 µM): 78.1%
- viability, T/C (second compound 10 µM, first compound 0.000316 µM): 61.6%
- viability, T/C (second compound 10 µM, first compound 0.001 µM): 64.7%
- viability, T/C (second compound 10 µM, first compound 0.00316 µM): 60.5%
- viability, T/C (second compound 10 µM, first compound 0.01 µM): 60.8%
- viability, T/C (second compound 10 µM, first compound 0.0316 µM): 57.2%
- viability, T/C (second compound 10 µM, first compound 0.1 µM): 57.6%

Structure (SMILES): CCN1CCN(Cc2ccc(Nc3ncc(F)c(-c4cc(F)c5nc(C)n(C(C)C)c5c4)n3)nc2)CC1
- viability, T/C (compound 0.00316 µM): 98.7% [middle of 4 runs]
- viability, T/C (compound 0.01 µM): 99.5% [middle of 4 runs]
- viability, T/C (compound 0.0316 µM): 95.2% and 108% (2×) and 103%
- viability, T/C (compound 0.1 µM): 107% [middle of 4 runs]
- viability, T/C (compound 0.316 µM): 115% [middle of 4 runs]
- viability, T/C (compound 1 µM): 122% [middle of 4 runs]
- IC50 (curve of compound): > 1000 nM
